Like-named read-outs stand apart in the source and are kept apart here.

This test concerns the target human NAMPT enzyme (His-hNAMPT) (Homo sapiens (Human), UniProt P43490). The test is described as follows: NAMPT enzymatic inhibition assay (fluorescence, NADH product). It counts as biochemical.
Setting [1] is: [BPS], read-out: NAMPT IC50 (μM) [BPS].
Setting [2] is: [HDB], read-out: NAMPT IC50 (μM) [HDB].

Chain of human NAMPT enzyme (His-hNAMPT) (P43490 whole entry): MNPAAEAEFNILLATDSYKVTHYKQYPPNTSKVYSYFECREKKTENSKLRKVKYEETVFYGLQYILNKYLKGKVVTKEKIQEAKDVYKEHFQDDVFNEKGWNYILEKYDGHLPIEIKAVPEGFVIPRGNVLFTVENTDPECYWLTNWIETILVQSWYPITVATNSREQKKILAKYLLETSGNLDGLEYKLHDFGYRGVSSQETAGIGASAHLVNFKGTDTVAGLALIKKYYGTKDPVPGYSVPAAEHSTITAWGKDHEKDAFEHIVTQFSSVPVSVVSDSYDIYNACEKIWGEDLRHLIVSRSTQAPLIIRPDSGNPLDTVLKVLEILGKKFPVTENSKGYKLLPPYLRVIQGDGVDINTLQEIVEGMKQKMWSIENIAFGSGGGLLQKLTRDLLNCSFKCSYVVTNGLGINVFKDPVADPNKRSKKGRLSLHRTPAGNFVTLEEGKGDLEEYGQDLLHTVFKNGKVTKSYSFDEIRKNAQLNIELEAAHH

The term IC50 denotes the concentration that inhibits the measured activity by half. Consider `Cc1nc(C)c(C(=O)N2C[C@@H]3[C@@H](CCNC(=O)c4cnc5nccn5c4)[C@@H]3C2)o1` [Example 108, N-(2-((1R,5S,6s)-3-(2,4-dimethyloxazole-5-carbonyl)-3-azabicyclo[3.1.0]hexan-6-yl)ethyl)imidazo[1,2-a]pyrimidine-6-carboxamide], for which the IC50 under setting [1] was in the range of 0.01 to 0.49 µM. For the molecule `O=C(NCC[C@@H]1[C@H]2CN(C(=O)CC3CCOCC3)C[C@@H]12)c1cc(-c2cccnc2)on1` [Example 109, 5-(pyridin-3-yl)-N-(2-((1R,5S,6s)-3-(2-(tetrahydro-2H-pyran-4-yl)acetyl)-3-azabicyclo[3.1.0]hexan-6-yl)ethyl)isoxazole-3-carboxamide], the IC50 under setting [1] fell in the range of 0.01 to 0.49 µM. Take `O=C(NCC[C@@H]1[C@H]2CN(C(=O)c3ccc(F)cc3)C[C@@H]12)c1cc(-c2cccnc2)on1` [Example 110, N-(2-((1R,5S,6s)-3-(4-fluorobenzoyl)-3-azabicyclo[3.1.0]hexan-6-yl)ethyl)-5-(pyridin-3-yl)isoxazole-3-carboxamide]: the IC50 under setting [1] was 0.01 to 0.49 µM. Still for that read-out and setting: for `Cc1nc(C)c(C(=O)N2C[C@@H]3[C@@H](CCNC(=O)c4cc(-c5cccnc5)on4)[C@@H]3C2)o1` [Example 111, N-(2-((1R,5S,6s)-3-(2,4-dimethyloxazole-5-carbonyl)-3-azabicyclo[3.1.0]hexan-6-yl)ethyl)-5-(pyridin-3-yl)isoxazole-3-carboxamide] the value was 0.01 to 0.49 µM; for `O=C(NCC[C@@H]1[C@H]2CN(C(=O)CC3CCOCC3)C[C@@H]12)c1cc2cnccc2[nH]1` [Example 112, N-(2-((1R,5S,6s)-3-(2-(tetrahydro-2H-pyran-4-yl)acetyl)-3-azabicyclo[3.1.0]hexan-6-yl)ethyl)-1H-pyrrolo[3,2-c]pyridine-2-carboxamide], 0.01 to 0.49 µM.

`Cc1nc(C)c(C(=O)N2C[C@@H]3[C@@H](CCNC(=O)c4cc5cnccc5[nH]4)[C@@H]3C2)o1` [Example 113, N-(2-((1R,5S,6s)-3-(2,4-dimethyloxazole-5-carbonyl)-3-azabicyclo[3.1.0]hexan-6-yl)ethyl)-1H-pyrrolo[3,2-c]pyridine-2-carboxamide]: the IC50 under setting [1] was 0.01 to 0.49 µM. As for `Cc1nc(C)c(C(=O)N2C[C@@H]3[C@@H](CCNC(=O)c4cc5ccncc5s4)[C@@H]3C2)o1` [Example 114, N-(2-((1R,5S,6s)-3-(2,4-dimethyloxazole-5-carbonyl)-3-azabicyclo[3.1.0]hexan-6-yl)ethyl)thieno[2,3-c]pyridine-2-carboxamide], the IC50 under setting [2] lay within 0.01 to 0.49 µM. As for `NC(=O)c1cccc(C(=O)N2C[C@@H]3[C@@H](CCNC(=O)/C=C/c4cccnc4)[C@@H]3C2)c1` [Example 115, 3-((1R,5S,6s)-6-(2-((E)-3-(pyridin-3-yl)acrylamido)ethyl)-3-azabicyclo[3.1.0]hexane-3-carbonyl)benzamide], the IC50 under setting [2] is below 0.01 µM. Still for that read-out and setting: for `NC(=O)c1cccc(C(=O)N2C[C@@H]3[C@@H](CCNC(=O)c4cc5cnccc5[nH]4)[C@@H]3C2)c1` [Example 116, N-(2-((1R,5S,6s)-3-(3-carbamoylbenzoyl)-3-azabicyclo[3.1.0]hexan-6-yl)ethyl)-1H-pyrrolo[3,2-c]pyridine-2-carboxamide] the value was 0.01 to 0.49 µM. Take `O=C(/C=C/c1cccnc1)NCC[C@@H]1[C@H]2CN(c3ccccc3)C[C@@H]12` [Example 117, (E)-N-(2-((1R,5S,6s)-3-phenyl-3-azabicyclo[3.1.0]hexan-6-yl)ethyl)-3-(pyridin-3-yl)acrylamide]: the IC50 under setting [1] lay within 0.01 to 0.49 µM. As for `O=C(NCC[C@@H]1[C@H]2CN(c3ncccn3)C[C@@H]12)c1ccc2nccn2c1` [Example 118, N-(2-((1R,5S,6s)-3-(pyrimidin-2-yl)-3-azabicyclo[3.1.0]hexan-6-yl)ethyl)imidazo[1,2-a]pyridine-6-carboxamide], under setting [1], the IC50 lay in the range of 0.01 to 0.49 µM. Still for that read-out and setting: to `O=C(NCC[C@@H]1[C@H]2CN(c3ncccn3)C[C@@H]12)c1cc2ccncc2o1` [Example 119, N-(2-((1R,5S,6s)-3-(pyrimidin-2-yl)-3-azabicyclo[3.1.0]hexan-6-yl)ethyl)furo[2,3-c]pyridine-2-carboxamide] belongs 0.01 to 0.49 µM; to `O=C(NCC[C@@H]1[C@H]2CN(c3nc4ccccc4s3)C[C@@H]12)c1cc2ccncc2o1` [Example 120, N-(2-((1R,5S,6s)-3-(benzo[d]thiazol-2-yl)-3-azabicyclo[3.1.0]hexan-6-yl)ethyl)furo[2,3-c]pyridine-2-carboxamide], 0.01 to 0.49 µM; to `O=C(NCC[C@@H]1[C@H]2CN(c3cccc4ccccc34)C[C@@H]12)c1cc2ccncc2o1` [Example 121, N-(2-((1R,5S,6s)-3-(naphthalen-1-yl)-3-azabicyclo[3.1.0]hexan-6-yl)ethyl)furo[2,3-c]pyridine-2-carboxamide], 0.01 to 0.49 µM. Take `O=C(NCC[C@@H]1[C@H]2CN(c3ncc4ccccc4n3)C[C@@H]12)c1cc2ccncc2o1` [Example 122, N-(2-((1R,5S,6s)-3-(quinazolin-2-yl)-3-azabicyclo[3.1.0]hexan-6-yl)ethyl)furo[2,3-c]pyridine-2-carboxamide]: the IC50 under setting [1] was 0.01 to 0.49 µM. On the same count and under the same terms, to `O=C(/C=C/c1cccnc1)NCC[C@@H]1[C@H]2CN(c3ncccn3)C[C@@H]12` [Example 123, (E)-3-(pyridin-3-yl)-N-(2-((1R,5S,6s)-3-(pyrimidin-2-yl)-3-azabicyclo[3.1.0]hexan-6-yl)ethyl)acrylamide] belongs 0.01 to 0.49 µM; to `O=C(/C=C/c1cccnc1)NCC[C@@H]1[C@H]2CN(c3nc4ccccc4s3)C[C@@H]12` [Example 124, (E)-N-(2-((1R,5S,6s)-3-(benzo[d]thiazol-2-yl)-3-azabicyclo[3.1.0]hexan-6-yl)ethyl)-3-(pyridin-3-yl)acrylamide], 0.01 to 0.49 µM; to `O=C(/C=C/c1cccnc1)NCC[C@@H]1[C@H]2CN(c3ncc4ccccc4n3)C[C@@H]12` [Example 125, (E)-3-(pyridin-3-yl)-N-(2-((1R,5S,6s)-3-(quinazolin-2-yl)-3-azabicyclo[3.1.0]hexan-6-yl)ethyl)acrylamide], 0.01 to 0.49 µM. For the molecule `O=C(/C=C/c1cccnc1)NCC[C@@H]1[C@H]2CN(c3cccc4ccccc34)C[C@@H]12` [Example 126, (E)-N-(2-((1R,5S,6s)-3-(naphthalen-1-yl)-3-azabicyclo[3.1.0]hexan-6-yl)ethyl)-3-(pyridin-3-yl)acrylamide], the IC50 under setting [1] was in the range of 0.01 to 0.49 µM. Still for that read-out and setting: to `O=C(/C=C/c1cccnc1)NCC[C@@H]1[C@H]2CN(c3ccc4ccccc4c3)C[C@@H]12` [Example 127, (E)-N-(2-((1R,5S,6s)-3-(naphthalen-2-yl)-3-azabicyclo[3.1.0]hexan-6-yl)ethyl)-3-(pyridin-3-yl)acrylamide] belongs 0.01 to 0.49 µM; to `O=C(/C=C/c1cccnc1)NCC[C@@H]1[C@H]2CN(c3cccc(F)c3)C[C@@H]12` [Example 128, (E)-N-(2-((1R,5S,6s)-3-(3-fluorophenyl)-3-azabicyclo[3.1.0]hexan-6-yl)ethyl)-3-(pyridin-3-yl)acrylamide], 0.01 to 0.49 µM; to `COc1cccc(N2C[C@@H]3[C@@H](CCNC(=O)/C=C/c4cccnc4)[C@@H]3C2)c1` [Example 129, (E)-N-(2-((1R,5S,6s)-3-(3-methoxyphenyl)-3-azabicyclo[3.1.0]hexan-6-yl)ethyl)-3-(pyridin-3-yl)acrylamide], 0.01 to 0.49 µM.

The values are drawn from patent US12421210B2, “Fused bicyclic heterocycles as therapeutic agents” (NEW YORK UNIVERSITY, priority 2018, dated 2025).
